Assay results as given in patent publication US5773458A, “1-azabicycloheptane derivatives” (American Home Products Corporation, priority 1997, dated 1998).

Biological target: T1, M1 acetylcholine receptors (Homo sapiens, UniProt P11229)
T1 construct: expressed in transfected cells; host or cells: Chinese Hamster Ovary (CHO) cells, CMV vector
T1 sequence (P11229 1-460): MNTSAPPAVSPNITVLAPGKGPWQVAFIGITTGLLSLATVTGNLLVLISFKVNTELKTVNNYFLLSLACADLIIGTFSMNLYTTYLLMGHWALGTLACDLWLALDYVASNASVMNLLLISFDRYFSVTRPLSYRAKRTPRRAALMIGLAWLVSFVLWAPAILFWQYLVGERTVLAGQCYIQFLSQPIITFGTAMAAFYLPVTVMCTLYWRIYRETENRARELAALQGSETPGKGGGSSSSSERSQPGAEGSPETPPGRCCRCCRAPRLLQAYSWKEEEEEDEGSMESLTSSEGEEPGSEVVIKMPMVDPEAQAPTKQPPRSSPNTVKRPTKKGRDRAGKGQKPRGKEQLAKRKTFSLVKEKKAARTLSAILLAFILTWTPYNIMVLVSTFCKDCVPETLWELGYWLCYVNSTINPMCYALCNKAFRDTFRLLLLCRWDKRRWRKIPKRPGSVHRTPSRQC
Assay: Phosphoinositide (PI) hydrolysis in transfected CHO cells
Type: cell-based
Conditions: statement in words, no figures given
Procedure: The tubes are incubated for one hour at 37° C. The reaction is quenched with chloroform and the phosphatidyl inositols are extracted with methanol and chloroform. Phase separation is assured with the addition of methanol and water followed by centrifugation. The tritiated inositol phosphates are recovered on BioRad AG 1-X8 anion exchange resin in the formate cycle. After washing the resin with water and myo-inositol, the inositol phosphates are eluted with ammonium formate/formic acid, collected and subjected to liquid scintillation spectroscopy.

functional m1 muscarinic agonism: enhanced muscarinic agonism
SMILES: CNC(=O)O[C@@H]1C[N+]2([O-])CC[C@@H]1C2 (relative stereo) [Example 1, (exo)--Methylcarbamic acid 1-oxy-1-aza-bicyclo[2.2.1]hept-3-yl ester]
